Data on 15 molecules can be found in PubChem BioAssay (NCI).

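Briefly, cells in 96-well plates were exposed to five compound concentrations for 48 h, and endpoints were estimated by linear interpolation. The concentration for 50% growth inhibition is given as GI50. TGI: concentration producing complete growth inhibition.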

What is called TGI is the concentration giving total growth inhibition. A higher TGI goes with less potent growth arrest. For orientation: GI50 means the concentration at which growth is held to half of that of the control.

Among the test systems are HL-60(TB) leukemia; IGROV1 ovarian; K-562 leukemia; M14 melanoma; OVCAR-5 ovarian; UACC-257 melanoma; UO-31 renal; SR leukemia; HS 578T breast.
Assay in all cases: DTP human tumour cell line panel, 48 h

As for `O=C(NCCCCN=c1cccccc1NCCCCNC(=O)OCc1ccccc1)OCc1ccccc1`, the concentration for total growth inhibition (TGI) in the experiment with HL-60(TB) leukemia was found to be 31.3 µM; in the experiment on IGROV1 ovarian it was 54.1 µM; with K-562 leukemia it was 33.4 µM; in the experiment on M14 melanoma it was 29.4 µM; in the experiment on OVCAR-5 ovarian, 41.9 µM; in the experiment on UACC-257 melanoma it was 29.3 µM. The TGI in the experiment on UO-31 renal was 21.4 µM.

On to `CCOC(=O)C1(c2ccccc2)CCC(=O)CC1`, for which the TGI with HL-60(TB) leukemia, in the experiment on IGROV1 ovarian, in the experiment with K-562 leukemia, in the experiment on M14 melanoma, in the experiment on OVCAR-5 ovarian and in the experiment on UACC-257 melanoma was more than 100 µM each time. Moreover, the total growth inhibition concentration (TGI) with UO-31 renal is more than 100 µM.

As to `CN(C)c1c([O-])c(=[N+](C)C)c1=O`, the TGI in the experiment with HL-60(TB) leukemia, in the experiment with IGROV1 ovarian, in the experiment with K-562 leukemia, in the experiment on M14 melanoma, with OVCAR-5 ovarian and with SR leukemia was more than 100 µM each time. Also, the concentration for total growth inhibition (TGI) in the experiment with UACC-257 melanoma and in the experiment on UO-31 renal was more than 100 µM in each case.

On to `CC[C@@]12N=C(N(C)C)C[C@]1(O)ON=C2C`, for which the total growth inhibition concentration (TGI) in the experiment on HL-60(TB) leukemia, with IGROV1 ovarian, in the experiment on K-562 leukemia, in the experiment on M14 melanoma, in the experiment with SR leukemia and in the experiment on UO-31 renal was more than 100 µM each time.

Turning to `O=C(O)CSc1n[nH]c(-c2ccccc2)n1`, the TGI with HL-60(TB) leukemia, in the experiment with IGROV1 ovarian, with K-562 leukemia, in the experiment on M14 melanoma, in the experiment with OVCAR-5 ovarian and in the experiment with UO-31 renal was more than 100 µM each time.

In the case of `O=c1[nH]cc(COCCO)c(=O)[nH]1`, the TGI in the experiment with HL-60(TB) leukemia, in the experiment with IGROV1 ovarian, in the experiment on K-562 leukemia, with M14 melanoma, in the experiment with OVCAR-5 ovarian and in the experiment on UACC-257 melanoma was more than 100 µM in each case. The same molecule had a concentration for total growth inhibition (TGI) in the experiment on UO-31 renal of more than 100 µM.

Consider `COc1ccc(C(O)c2nccn2C)c(OC)c1` (stereo not drawn), for which the TGI in the experiment with HL-60(TB) leukemia, with IGROV1 ovarian, in the experiment with K-562 leukemia, in the experiment on M14 melanoma, with OVCAR-5 ovarian and in the experiment with SR leukemia was more than 100 µM throughout. For the same molecule, the concentration for total growth inhibition (TGI) with UACC-257 melanoma and with UO-31 renal was more than 100 µM in each case.

For `O=C1c2ccccc2C2(O)c3cc4ccccc4cc3OC12O` (stereo not drawn), the TGI in the experiment on IGROV1 ovarian is more than 100 µM; with K-562 leukemia, more than 100 µM; in the experiment on M14 melanoma, more than 100 µM; in the experiment on OVCAR-5 ovarian, more than 100 µM; in the experiment on UACC-257 melanoma, 89.3 µM.

In the case of `Cc1ccc(NC(=O)C2C(=O)N(c3ccc(C)c(C)c3)C(=O)C2N=N)cc1C` (stereo not drawn), the TGI with HL-60(TB) leukemia, in the experiment with IGROV1 ovarian, in the experiment on M14 melanoma, with OVCAR-5 ovarian, with UACC-257 melanoma and in the experiment on UO-31 renal was more than 100 µM throughout.

As to `O=C(Nc1cc(Cl)ccc1Cl)c1cc2cccc(Cl)c2oc1=O`, the concentration for total growth inhibition (TGI) in the experiment with HL-60(TB) leukemia, with IGROV1 ovarian, in the experiment on K-562 leukemia, with M14 melanoma and with UACC-257 melanoma was more than 100 µM in each case.

Consider `O=C(CSc1nnc(-c2ccc(N=Cc3ccc(Cl)cc3)cc2)o1)Nc1ccc(Cl)cc1`, for which the total growth inhibition concentration (TGI) in the experiment with HL-60(TB) leukemia, with K-562 leukemia, with M14 melanoma, with SR leukemia, in the experiment on UACC-257 melanoma and with UO-31 renal was more than 100 µM in each case.

Turning to `CC(=O)n1c2c(c(=O)n1-c1ccccc1)S(=O)CCC2` (stereo not drawn), the TGI in the experiment on HL-60(TB) leukemia was more than 70 µM; with IGROV1 ovarian, more than 100 µM; with K-562 leukemia, more than 100 µM; in the experiment on M14 melanoma, more than 100 µM; in the experiment with OVCAR-5 ovarian, more than 100 µM; with SR leukemia it was 22.8 µM. In addition, the total growth inhibition concentration (TGI) with UACC-257 melanoma and with UO-31 renal was more than 100 µM in each case.

In the case of `CCc1c(OC(C)=O)c2c(NC3OC(COC(C)=O)C(OC(C)=O)C(OC(C)=O)C3OC(C)=O)nc(OC)nc2oc1=O` (stereo not drawn), the total growth inhibition concentration (TGI) in the experiment on HL-60(TB) leukemia, in the experiment with IGROV1 ovarian, with K-562 leukemia, in the experiment with M14 melanoma, in the experiment with OVCAR-5 ovarian and in the experiment with UACC-257 melanoma was more than 100 µM in each case. Besides, in the experiment with UO-31 renal, the TGI is more than 100 µM.

As to `CCCCCCC[CH2][Sn]1([CH2]CCCCCCC)[O]C(=O)c2cccnc2[S]1`, the GI50 in the experiment with HL-60(TB) leukemia, with IGROV1 ovarian, in the experiment with K-562 leukemia, in the experiment on M14 melanoma, in the experiment with OVCAR-5 ovarian and in the experiment with SR leukemia was more than 100 µM throughout. Further, the GI50 in the experiment on UACC-257 melanoma and in the experiment with UO-31 renal was more than 100 µM in each case. In addition, the TGI in the experiment with HL-60(TB) leukemia, with IGROV1 ovarian, with K-562 leukemia, in the experiment with M14 melanoma, in the experiment with OVCAR-5 ovarian and in the experiment on SR leukemia was more than 100 µM in each case. The TGI in the experiment with UACC-257 melanoma and in the experiment on UO-31 renal was more than 100 µM in each case.

`Cc1ccc(/C=C/c2c(C(=O)/C=C/c3ccc(C(F)(F)F)cc3)c(C)nc3ccccc23)cc1`: the GI50 in the experiment with HL-60(TB) leukemia was 1.25 µM; in the experiment with HS 578T breast, 1.66 µM; in the experiment on IGROV1 ovarian, 0.6 µM; with K-562 leukemia, 1.55 µM; with OVCAR-5 ovarian, 1.84 µM; in the experiment on SR leukemia it was 0.451 µM. Further, the GI50 in the experiment with UACC-257 melanoma is 2.15 µM; in the experiment with UO-31 renal, 1.01 µM. Further, the TGI in the experiment with HL-60(TB) leukemia is 3.66 µM; with HS 578T breast, 4.63 µM; with IGROV1 ovarian, 2.02 µM; with K-562 leukemia it was more than 100 µM; with OVCAR-5 ovarian, 4.25 µM; with SR leukemia, 4.97 µM. In addition, the TGI in the experiment with UACC-257 melanoma came out at 4.95 µM; with UO-31 renal, 2.17 µM.
